Results from US20260232682A1, “GSPT1 DEGRADER COMPOUNDS” (Captor Therapeutics S.A., priority 2023, published 2026).

How the values were obtained:
[1] = biological target: T1, [SALL4 ZF2]-[compound]-[CRBN/DDB1] ternary complex (Homo sapiens, UniProt Q96SW2+Q9UJQ4); test: AlphaLISA assay for off-target recruitment detection, SALL4 ZF2; type: binding; conditions: 1 μM compound; normalized to Lenalidomide; read-out: Normalized ternary complex response, SALL4 ZF2
T1 construct: SALL4 ZF2
How it was run: (§1)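 Neo-substrate with 40 μg/ml donor beads and 200 nM 6×His-CRBN/DDB1 with 40 μg/ml anti-His acceptor beads were each prepared in PBS pH 7.4 with Tween-20 and 1 mM DTT, preincubated 30 min at RT, then mixed. Compounds at 2% DMSO were incubated 30 min at 25 °C, read at 680/615 nm, and normalised between DMSO background and reference glue maximum.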

[2] = biological target: [CK1α]-[compound]-[CRBN/DDB1] ternary complex (Homo sapiens, UniProt P48729+Q96SW2); test: AlphaLISA assay for off-target recruitment detection, CK1α; type: binding; conditions: 1 μM compound; normalized to FPFT-2216; read-out: Normalized ternary complex response, CK1α
How it was run: as §1

[3] = biological target: T2, [IKZF1 ZF2]-[compound]-[CRBN/DDB1] ternary complex (Homo sapiens, UniProt Q13422+Q96SW2); test: AlphaLISA assay for off-target recruitment detection, IKZF1 ZF2; type: binding; conditions: 1 μM compound; normalized to Lenalidomide; read-out: Normalized ternary complex response, IKZF1 ZF2
T2 construct: IKZF1 ZF2
How it was run: as §1

[4] = biological target: [GSPT1]-[compound of formula (I)]-[CRBN/DDB1] complex (Homo sapiens, UniProt P15170+Q96SW2); test: HTRF ternary complex assay (GSPT1); type: binding; conditions: read-out: HTRF ternary complex Average pEC50 by molecule (converted)
How it was run: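 Compounds in dose-response were incubated 180 min at 25 °C with 48 nM GSPT1 and 52.8 nM 6×His-CRBN/DDB1, plus Streptavidin-Eu cryptate and anti-6×His-d2, in buffer with 1 mM DTT and 0.5% DMSO. TR-FRET (665/620) was normalized to DMSO background and fitted with a Hill slope model for EC50/pEC50.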

[5] = biological target: CRBN/DDB1 protein complex (Homo sapiens, UniProt Q96SW2); test: CRBN displacement TR-FRET assay; conditions: Thalidomide-Red tracer, 6×His-CRBN/DDB1; read-out: CRBN binding Ki
How it was run: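 Test compound at various concentrations competed with 6.8 nM Thalidomide-Red tracer for 5 nM 6×His-CRBN/DDB1, detected with 0.5 nM anti-His-Eu cryptate in buffer with 1 mM DTT and 1% DMSO. Incubation ran 180 min at room temperature with a time-resolved fluorescence read-out. IC50 values were converted to Ki by Cheng–Prusoff using tracer Kd and protein and tracer concentrations.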

[CK1α]-[compound]-[CRBN/DDB1] ternary complex, sequence (P48729 whole entry): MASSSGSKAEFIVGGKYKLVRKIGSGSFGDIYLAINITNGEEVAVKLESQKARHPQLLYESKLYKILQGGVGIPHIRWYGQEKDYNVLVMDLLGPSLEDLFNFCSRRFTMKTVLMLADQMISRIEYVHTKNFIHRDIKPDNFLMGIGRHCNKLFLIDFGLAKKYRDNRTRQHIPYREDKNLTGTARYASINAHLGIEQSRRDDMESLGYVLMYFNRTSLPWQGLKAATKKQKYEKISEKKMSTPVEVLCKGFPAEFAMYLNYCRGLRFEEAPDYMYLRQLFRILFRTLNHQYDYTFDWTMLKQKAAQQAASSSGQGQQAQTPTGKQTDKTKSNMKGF
[CK1α]-[compound]-[CRBN/DDB1] ternary complex, sequence (Q96SW2 whole entry): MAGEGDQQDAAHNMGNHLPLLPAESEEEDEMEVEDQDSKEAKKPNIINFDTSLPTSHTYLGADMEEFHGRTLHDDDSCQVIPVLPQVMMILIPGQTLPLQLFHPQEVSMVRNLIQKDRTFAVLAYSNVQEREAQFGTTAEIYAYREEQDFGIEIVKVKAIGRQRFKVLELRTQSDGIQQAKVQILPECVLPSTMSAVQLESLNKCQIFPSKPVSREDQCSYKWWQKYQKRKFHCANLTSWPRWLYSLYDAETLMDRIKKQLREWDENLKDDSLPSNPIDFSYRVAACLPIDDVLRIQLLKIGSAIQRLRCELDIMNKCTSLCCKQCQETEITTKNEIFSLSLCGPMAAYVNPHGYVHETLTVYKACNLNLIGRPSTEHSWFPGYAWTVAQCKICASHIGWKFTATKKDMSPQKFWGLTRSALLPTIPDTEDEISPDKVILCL
[CK1α]-[compound]-[CRBN/DDB1] ternary complex, sequence (Q16531 whole entry partner): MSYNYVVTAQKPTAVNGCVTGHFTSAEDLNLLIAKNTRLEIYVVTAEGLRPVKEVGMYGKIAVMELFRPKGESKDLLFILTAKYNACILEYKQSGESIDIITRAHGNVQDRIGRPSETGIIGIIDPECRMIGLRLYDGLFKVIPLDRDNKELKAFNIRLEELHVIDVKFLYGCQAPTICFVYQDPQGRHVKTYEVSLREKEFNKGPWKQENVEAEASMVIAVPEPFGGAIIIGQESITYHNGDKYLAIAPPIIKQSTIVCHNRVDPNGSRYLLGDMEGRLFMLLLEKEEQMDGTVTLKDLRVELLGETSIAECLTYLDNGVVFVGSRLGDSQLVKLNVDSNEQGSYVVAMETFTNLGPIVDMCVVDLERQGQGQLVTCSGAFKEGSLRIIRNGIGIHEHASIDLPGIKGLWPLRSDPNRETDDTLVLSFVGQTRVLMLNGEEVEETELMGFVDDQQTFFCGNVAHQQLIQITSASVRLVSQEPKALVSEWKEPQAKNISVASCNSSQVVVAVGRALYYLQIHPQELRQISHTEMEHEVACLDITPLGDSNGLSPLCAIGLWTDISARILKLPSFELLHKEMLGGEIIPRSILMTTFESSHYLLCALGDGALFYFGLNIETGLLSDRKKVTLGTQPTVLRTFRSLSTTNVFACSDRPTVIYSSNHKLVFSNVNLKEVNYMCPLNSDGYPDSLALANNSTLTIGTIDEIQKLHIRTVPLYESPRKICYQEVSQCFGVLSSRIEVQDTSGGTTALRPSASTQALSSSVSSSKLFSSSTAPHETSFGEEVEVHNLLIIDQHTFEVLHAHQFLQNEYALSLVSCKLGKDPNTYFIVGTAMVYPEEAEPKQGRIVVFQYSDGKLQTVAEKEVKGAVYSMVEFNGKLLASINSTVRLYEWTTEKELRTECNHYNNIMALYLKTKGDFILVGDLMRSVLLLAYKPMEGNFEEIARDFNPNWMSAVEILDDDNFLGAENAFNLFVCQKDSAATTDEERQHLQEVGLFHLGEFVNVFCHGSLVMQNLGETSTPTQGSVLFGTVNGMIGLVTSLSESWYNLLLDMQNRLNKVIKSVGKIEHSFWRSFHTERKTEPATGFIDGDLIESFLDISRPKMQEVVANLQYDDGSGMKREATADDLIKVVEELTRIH
CRBN/DDB1 protein complex, sequence (Q96SW2 whole entry, species assumed): as the sequence (Q96SW2 whole entry) above
CRBN/DDB1 protein complex, sequence (Q16531 whole entry partner, species assumed): as the sequence (Q16531 whole entry partner) above
T1 sequence (Q9UJQ4 410-432 limits assumed): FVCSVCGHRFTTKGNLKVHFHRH
T1 sequence (Q96SW2 whole entry): as the sequence (Q96SW2 whole entry) above
T1 sequence (Q16531 whole entry partner): as the sequence (Q16531 whole entry partner) above
T2 sequence (Q13422 145-167 limits assumed): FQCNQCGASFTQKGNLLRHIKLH
T2 sequence (Q96SW2 whole entry): as the sequence (Q96SW2 whole entry) above
T2 sequence (Q16531 whole entry partner): as the sequence (Q16531 whole entry partner) above
[GSPT1]-[compound of formula (I)]-[CRBN/DDB1] complex, sequence (P15170 whole entry): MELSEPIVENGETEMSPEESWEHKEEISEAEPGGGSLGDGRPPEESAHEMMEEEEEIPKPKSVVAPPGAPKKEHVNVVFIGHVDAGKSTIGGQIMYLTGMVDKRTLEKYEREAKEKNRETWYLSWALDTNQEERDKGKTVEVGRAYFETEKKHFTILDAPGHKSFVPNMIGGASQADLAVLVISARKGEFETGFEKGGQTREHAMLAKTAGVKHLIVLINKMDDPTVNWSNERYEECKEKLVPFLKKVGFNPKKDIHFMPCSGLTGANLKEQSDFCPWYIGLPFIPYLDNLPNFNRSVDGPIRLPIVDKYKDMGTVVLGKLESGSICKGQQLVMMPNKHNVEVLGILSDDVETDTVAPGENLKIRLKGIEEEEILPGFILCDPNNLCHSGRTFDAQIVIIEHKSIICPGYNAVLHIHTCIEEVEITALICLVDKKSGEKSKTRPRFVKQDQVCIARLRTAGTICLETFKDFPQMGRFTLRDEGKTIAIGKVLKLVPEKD
[GSPT1]-[compound of formula (I)]-[CRBN/DDB1] complex, sequence (Q96SW2 whole entry): as the sequence (Q96SW2 whole entry) above
[GSPT1]-[compound of formula (I)]-[CRBN/DDB1] complex, sequence (Q16531 whole entry partner): as the sequence (Q16531 whole entry partner) above

SMILES	activation at 1 µM [1] [%]	activation at 1 µM [2] [%]	activation at 1 µM [3] [%]	EC50 [4] [µM]	Ki [5] [µM]
Cc1ccc(NC(=O)OCc2cc(F)c3cc(C4CCC(=O)NC4=O)c(C)nc3c2)cc1Cl (stereo not drawn) [Compound 22, (3-(2,6-dioxopiperidin-3-yl)-5-fluoro-2-methylquinolin-7-yl)methyl (3-chloro-4-methylphenyl)carbamate]	< 10	< 10	< 10	0.316 to 3.16	> 1
Cc1ccc(NC(=O)NCc2ccc3cc(N4CCC(=O)NC4=O)c(C)nc3c2)cc1Cl [Compound 27, 1-(3-chloro-4-methylphenyl)-3-((3-(2,4-dioxotetrahydropyrimidin-1(2H)-yl)-2-methylquinolin-7-yl)methyl)urea]	< 10	< 10	< 10	< 0.316	< 0.5
Cc1ccc(NC(=O)OCc2ccc3cc(N4CCC(=O)NC4=O)c(C)nc3c2)cc1Cl [Compound 28, (3-(2,4-dioxotetrahydropyrimidin-1(2H)-yl)-2-methylquinolin-7-yl)methyl (3-chloro-4-methylphenyl)carbamate]	< 10	< 10	< 10	0.316 to 3.16	0.5 to 1
Cc1ccc(NC(=O)OCc2ccc3nc(C)c(N4CCC(=O)NC4=O)cc3c2)cc1Cl [Compound 29, (3-(2,4-dioxotetrahydropyrimidin-1(2H)-yl)-2-methylquinolin-6-yl)methyl (3-chloro-4-methylphenyl)carbamate]	25 to 50	< 10	10 to 25	> 3.16	< 0.5
Cc1nc2cc(COC(=O)Nc3cc(C(C)(C)C)no3)ccc2cc1C1CCC(=O)NC1=O (stereo not drawn) [Compound 30, (3-(2,6-dioxopiperidin-3-yl)-2-methylquinolin-7-yl)methyl (3-(tert-butyl)isoxazol-5-yl)carbamate]	< 10	< 10	< 10	0.316 to 3.16	0.5 to 1
Cc1ccc(NC(=O)CCc2ccc3cc(C4CCC(=O)NC4=O)c(C)nc3c2)cc1Cl (stereo not drawn) [Compound 32, N-(3-chloro-4-methylphenyl)-3-(3-(2,6-dioxopiperidin-3-yl)-2-methylquinolin-7-yl)propanamide]	< 10	< 10	< 10	0.316 to 3.16	0.5 to 1
Cc1nc2cc(COC(=O)Nc3csc(-c4ccccc4)c3)ccc2cc1C1CCC(=O)NC1=O (stereo not drawn) [Compound 37, (3-(2,6-dioxopiperidin-3-yl)-2-methylquinolin-7-yl)methyl (5-phenylthiophen-3-yl)carbamate]	< 10	< 10	< 10	0.316 to 3.16	0.5 to 1
Cc1ccc(NC(=O)OCc2ccc3cc([C@@H]4CCC(=O)NC4=O)c(C)nc3c2)cc1Cl [Compound 38, (3-(2,6-dioxopiperidin-3-yl)-2-methylquinolin-7-yl)methyl (3-chloro-4-methylphenyl)carbamate]	< 10	< 10	< 10	0.316 to 3.16	> 1
Cc1ccc(NC(=O)OCc2ccc3cc([C@H]4CCC(=O)NC4=O)c(C)nc3c2)cc1Cl [Compound 39, (3-(2,6-dioxopiperidin-3-yl)-2-methylquinolin-7-yl)methyl (3-chloro-4-methylphenyl)carbamate]	< 10	< 10	< 10	0.316 to 3.16	0.5 to 1
Cc1nc2cc(COC(=O)Nc3ccc(N4CCOCC4)nc3)ccc2cc1C1CCC(=O)NC1=O (stereo not drawn) [Compound 42, (3-(2,6-dioxopiperidin-3-yl)-2-methylquinolin-7-yl)methyl (6-morpholinopyridin-3-yl)carbamate]	< 10	< 10	< 10	0.316 to 3.16	< 0.5
Cc1ccc(NC(=O)OCc2ccc3c(C)c(C4CCC(=O)NC4=O)c(C)nc3c2)cc1Cl (stereo not drawn) [Compound 44, (3-(2,6-dioxopiperidin-3-yl)-2,4-dimethylquinolin-7-yl)methyl (3-chloro-4-methylphenyl)carbamate]	< 10	< 10	< 10	< 0.316	< 0.5
COc1ccc(NC(=O)OCc2ccc3cc(C4CCC(=O)NC4=O)c(C)nc3c2)nn1 (stereo not drawn) [Compound 45, (3-(2,6-dioxopiperidin-3-yl)-2-methylquinolin-7-yl)methyl (6-methoxypyridazin-3-yl)carbamate]	< 10	< 10	< 10	0.316 to 3.16	> 1
Cc1nc2cc(COC(=O)Nc3cccc(-c4ccccc4)c3)ccc2cc1C1CCC(=O)NC1=O (stereo not drawn) [Compound 46, (3-(2,6-dioxopiperidin-3-yl)-2-methylquinolin-7-yl)methyl [1,1′-biphenyl]-3-ylcarbamate]	< 10	< 10	< 10	0.316 to 3.16	0.5 to 1
Cc1ccc(NC(=O)OCc2cc3nc(C)c(C4CCC(=O)NC4=O)cc3cc2F)cc1Cl (stereo not drawn) [Compound 49, (3-(2,6-dioxopiperidin-3-yl)-6-fluoro-2-methylquinolin-7-yl)methyl (3-chloro-4-methylphenyl)carbamate]	< 10	< 10	< 10	0.316 to 3.16	> 1
Cc1ccc(NC(=O)OCc2ccc3cc(C4CCC(=O)NC4=O)c(C)nc3c2F)cc1Cl (stereo not drawn) [Compound 50, (3-(2,6-dioxopiperidin-3-yl)-8-fluoro-2-methylquinolin-7-yl)methyl (3-chloro-4-methylphenyl)carbamate]	< 10	< 10	< 10	0.316 to 3.16	0.5 to 1
Cc1ccc(NC(=O)NCc2ccc3nc(C)c(N4CCC(=O)NC4=O)cc3c2)cc1Cl [Compound 51, 1-(3-chloro-4-methylphenyl)-3-((3-(2,4-dioxotetrahydropyrimidin-1(2H)-yl)-2-methylquinolin-6-yl)methyl)urea]	≥ 50	< 10	25 to 50	< 0.316	< 0.5
Cc1ccc(NC(=O)OCc2ccc3cc(C4CCC(=O)NC4=O)c(C)nc3c2)c(Cl)c1Cl (stereo not drawn) [Compound 54, (3-(2,6-dioxopiperidin-3-yl)-2-methylquinolin-7-yl)methyl (2,3-dichloro-4-methylphenyl)carbamate]	< 10	< 10	< 10	0.316 to 3.16	0.5 to 1
Cc1nc2cc(COC(=O)NC3CCC(C(C)(C)C)CC3)ccc2cc1C1CCC(=O)NC1=O (stereo not drawn) [Compound 55, (3-(2,6-dioxopiperidin-3-yl)-2-methylquinolin-7-yl)methyl (4-(tert-butyl)cyclohexyl)carbamate]	< 10	< 10	< 10	0.316 to 3.16	0.5 to 1
Cc1ncc(NC(=O)OCc2ccc3cc(C4CCC(=O)NC4=O)c(C)nc3c2)cc1Cl (stereo not drawn) [Compound 58, (3-(2,6-dioxopiperidin-3-yl)-2-methylquinolin-7-yl)methyl (5-chloro-6-methylpyridin-3-yl)carbamate]	< 10	< 10	< 10	0.316 to 3.16	0.5 to 1
COc1cnc(NC(=O)OCc2ccc3cc(C4CCC(=O)NC4=O)c(C)nc3c2)cn1 (stereo not drawn) [Compound 59, (3-(2,6-dioxopiperidin-3-yl)-2-methylquinolin-7-yl)methyl (5-methoxypyrazin-2-yl)carbamate]	< 10	< 10	< 10	< 0.316	< 0.5
Cc1nc2cc(CNC(=O)Nc3cc(C(C)(C)C)no3)ccc2cc1N1CCC(=O)NC1=O [Compound 64, 1-(3-(tert-butyl)isoxazol-5-yl)-3-((3-(2,4-dioxotetrahydropyrimidin-1(2H)-yl)-2-methylquinolin-7-yl)methyl)urea]	< 10	< 10	< 10	< 0.316	< 0.5
